In US20070259933A1, “COMPOSITIONS, DOSAGE FORMS AND METHODS OF TREATING EMESIS” (XenoPort, Inc., priority 2006, published 2007):
Read-outs that look alike come from different tables or passages of the source.

Experiments:
[1] = cited from earlier work
[2] = Regional gastrointestinal absorption of propofol prodrug; format: in vivo; settings: oral; colon vs upper gastrointestinal tract
[3] = system: sedation / general anesthesia; settings: in vivo; cited from earlier work
[4] = oral dosing, rats; cited from earlier work
[5] = orally administered propofol; dose-normalized oral vs intravenous; cited from earlier work
[6] = oral dose of 5-20 mg granisetron
[7] = oral dose of 25-200 mg dolasetron

CN1C2CCCC1CC(NC(=O)c1nn(C)c3ccccc13)C2 (stereo not shown) [granisetron]
AUC [1, 6]: 83 to 350 ng·mL/h | maximum plasma concentration [1, 6]: 14 to 68 ng/mL | terminal elimination half-life [1, 6]: 1.5 to 5.7 h

CN1[C@@H]2CC[C@H]1C[C@@H](OC(=O)c1c[nH]c3ccccc13)C2 [tropisetron]
AUC ([1]; oral dose of 5 mg tropisetron): about 230 ng·mL·h^−1 | maximum plasma concentration ([1]; oral dose of 5 mg tropisetron): about 22 ng/mL | oral bioavailability ([1]; oral dose of 5 mg tropisetron): 60-99% | terminal elimination half-life ([1]; oral dose of 5 mg tropisetron): 8.6 h

CC(C)c1cccc(C(C)C)c1OC(=O)OC[C@H](N)C(=O)O [(S)-2-amino-3-(2,6-diisopropylphenoxycarbonyloxy)-propanoic acid]
gastrointestinal absorption [2]: limited colonic absorption

CC(C)c1cccc(C(C)C)c1O [propofol, 2,6-diisopropylphenol]
propofol plasma concentrations needed for sedation [3]: 1,500-2,000 ng/mL | propofol plasma concentrations needed for the maintenance of general anesthesia [3]: 3,000-10,000 ng/mL | fraction of administered drug undergoing first pass metabolism [4]: approximately 90% | absolute oral bioavailability [5]: less than 2%

O=C(O[C@@H]1C[C@@H]2C[C@H]3C[C@H](C1)N2CC3=O)c1c[nH]c2ccccc12 [dolasetron]
AUC [1, 7]: about 1,233 ng·mL·h^−1 | oral bioavailability [1, 7]: 70-89% | terminal elimination half-life [1, 7]: 5 to 10 h

Cc1nccn1CC1CCc2c(c3ccccc3n2C)C1=O (stereo not shown) [ondansetron]
AUC ([1]; oral dose of 8 mg ondansetron): 101 to 351 ng·mL/h | maximum plasma concentration ([1]; oral dose of 8 mg ondansetron): 20 to 52 ng/mL | oral bioavailability ([1]; oral dose of 8 mg ondansetron): 48-75% | terminal elimination half-life ([1]; oral dose of 8 mg ondansetron): 2.5 to 6.2 h
